One assay has as its target T1, FRAP1 (mTOR) kinase (Homo sapiens, UniProt P42345).
T1 construct: purchased Invitrogen PV4753
Description: Inhibition of mTOR-induced p-4E-BP1 phosphorylation (TR-FRET mTOR Activity Kit; Invitrogen). It is filed as biochemical. The settings on record: 400 nM GFP-4E-BP1 substrate, ~150 ng/mL mTOR, one hour at room temperature. An excerpt: Inhibition of mTOR-Induced p-4E-BP1 Phosphorylation (TR-FRET mTOR Activity Kit; Invitrogen)
• GFP-4E-BP1 substrate; Invitrogen order no. PV4759 • Lanthascreen Tb-anti-p4E-BP1 (pThr46) Antibody Kit; Invitrogen order no. PV4758 • FRAP1 (mTOR) kinase; Invitrogen order no. […] Preparation of Reagents: Note: Thaw and keep mTOR, the substrate, ATP, and the antibody on ice prior to making working dilutions. Working dilutions of these components can be kept at room temperature for short periods of time the day of use. 1. Add 2 ml of 5× Assay Buffer to 8 ml water to prepare 10 ml of 1× Assay Buffer. Note: The concentration of 1× Assay Buffer is 50 mM HEPES pH 7.5, 0.01% Polysorbate 20, 1 mM EGTA, and 10 mM MnCl2. 2. Prepare Antibody/EDTA Solution by first adding 2.75 n1 of Tb-anti p4E-BP1 Antibody to 2397 n1 of LanthaScreen™ TR-FRET Dilution Buffer. Then, add 100 n1 of 0.5 M EDTA. 3. Prepare 4× Substrate/Enzyme Solution by first adding 72 n1 of GFP-4E-BP1 (22 nM) to 926 n1 of 1× Assay Buffer. Then, add 1.6 n1 of mTOR (0.45 mg/mL). 4. Prepare ATP Solution by adding 3.2 n1 of 10 mM ATP to 1997 n1 of 1× Assay Buffer. Serial Dilution of Inhibitors (16 Point Curve): Note: It is recommended that inhibitors be serially diluted in DMSO, then diluted to a 4× working concentration with 1× Assay Buffer. The below procedure describes dilution of compounds in a 96-well format prior to transfer to a 384-well format for kinase assays. This procedure calls for dilution of the compounds in 2 adjacent columns of a 96-well plate, which upon transfer to a single column of a 384-well plate with an 8-channel pipette will align the samples in order of concentration. 1. Dispense 40 n1 of DMSO to two adjacent columns of a 96 well plate per compound (e.g. columns 1 and 2). 2. Add 10 n1 of inhibitor stock (10 mM) to the first well of the first column (A1) and mix. 3. Remove 10 n1 from A1 and transfer to the adjacent well in the next column (B1) and mix. 4. Remove 10 n1 from B1 and transfer to the next well in the first column (B2) and mix. 5. Repeat this dilution pattern through well H1 and leave the last well (H2) as DMSO only. 6. Remove 4 n1 of diluted compounds and add to 96 n1 of 1× Assay Buffer in a 96-well plate making 4× compound dilutions. Kinase Reaction: 1. Add 2.5 μl of 4× compound dilutions from the first column of the 96-well plate to every other well of column 1 of a 384-well plate with an 8-channel pipette. Repeat for columns 2 and 3. 2. Add 2.5 n1 of 4× compound dilutions from the second column of the 96-well plate to the empty wells of column 1 of the 384-well plate with an 8-channel pipette. Repeat for columns 2 and 3. Note: This procedure aligns the compound dilutions in order of concentration. 3. Add 2.5 n1 of 4× Enzyme/Substrate Solution to all columns 1-6. 4. Preincubate for 30 min. at RT (shaker). 5. Add 5 n1 of ATP Solution to all wells to start reactions. 6. Shake the assay plate on a plate shaker for 30 seconds. 7. Incubate the assay plate for one hour at room temperature (20-25° C.). Stop Step and Fluorescence Detection: 1. Add 10 n1 of Antibody/EDTA Solution to each well in columns 1-9. 2. Shake the assay plate on a plate shaker for 30 seconds. 3. Incubate the assay plate for one hour at room temperature (20-25° C.). 4. Measure the GFP (FRET) and terbium (reference) emission signals on a fluorescence plate reader (e.g. Perkin Elmer Envision). Data Analysis: 1. Calculate the emission ratio for each sample by dividing the GFP (FRET) signal by the terbium (reference) signal. 2. Plot the concentration of each compound versus the emission ratio. Determine the concentration of compound required to reach 50% of the maximum signal (IC50). Determination of IC50 values can be obtained by curve fitting (sigmoidal dose response, variable slope) using Prism software from GraphPad). Inhibition of Proliferation: CyQuant PC-3 Description: […]

Another assay deals with PC-3 cells. Kind of assay: Inhibition of proliferation: CyQuant PC-3. The format is cell-based. The settings on record: 72 h; PC-3 human prostate carcinoma cells, incubated with compounds for 3 days, CyQuant NF DNA dye. The procedure:
• GFP-4E-BP1 substrate; Invitrogen order no. PV4759 • Lanthascreen Tb-anti-p4E-BP1 (pThr46) Antibody Kit; Invitrogen order no. PV4758 • FRAP1 (mTOR) kinase; Invitrogen order no. […] Preparation of Reagents: Note: Thaw and keep mTOR, the substrate, ATP, and the antibody on ice prior to making working dilutions. Working dilutions of these components can be kept at room temperature for short periods of time the day of use. 1. Add 2 ml of 5× Assay Buffer to 8 ml water to prepare 10 ml of 1× Assay Buffer. Note: The concentration of 1× Assay Buffer is 50 mM HEPES pH 7.5, 0.01% Polysorbate 20, 1 mM EGTA, and 10 mM MnCl2. 2. Prepare Antibody/EDTA Solution by first adding 2.75 n1 of Tb-anti p4E-BP1 Antibody to 2397 n1 of LanthaScreen™ TR-FRET Dilution Buffer. Then, add 100 n1 of 0.5 M EDTA. 3. Prepare 4× Substrate/Enzyme Solution by first adding 72 n1 of GFP-4E-BP1 (22 nM) to 926 n1 of 1× Assay Buffer. Then, add 1.6 n1 of mTOR (0.45 mg/mL). 4. Prepare ATP Solution by adding 3.2 n1 of 10 mM ATP to 1997 n1 of 1× Assay Buffer. Serial Dilution of Inhibitors (16 Point Curve): Note: It is recommended that inhibitors be serially diluted in DMSO, then diluted to a 4× working concentration with 1× Assay Buffer. The below procedure describes dilution of compounds in a 96-well format prior to transfer to a 384-well format for kinase assays. This procedure calls for dilution of the compounds in 2 adjacent columns of a 96-well plate, which upon transfer to a single column of a 384-well plate with an 8-channel pipette will align the samples in order of concentration. 1. Dispense 40 n1 of DMSO to two adjacent columns of a 96 well plate per compound (e.g. columns 1 and 2). 2. Add 10 n1 of inhibitor stock (10 mM) to the first well of the first column (A1) and mix. 3. Remove 10 n1 from A1 and transfer to the adjacent well in the next column (B1) and mix. 4. Remove 10 n1 from B1 and transfer to the next well in the first column (B2) and mix. 5. Repeat this dilution pattern through well H1 and leave the last well (H2) as DMSO only. 6. Remove 4 n1 of diluted compounds and add to 96 n1 of 1× Assay Buffer in a 96-well plate making 4× compound dilutions. Kinase Reaction: 1. Add 2.5 μl of 4× compound dilutions from the first column of the 96-well plate to every other well of column 1 of a 384-well plate with an 8-channel pipette. Repeat for columns 2 and 3. 2. Add 2.5 n1 of 4× compound dilutions from the second column of the 96-well plate to the empty wells of column 1 of the 384-well plate with an 8-channel pipette. Repeat for columns 2 and 3. Note: This procedure aligns the compound dilutions in order of concentration. 3. Add 2.5 n1 of 4× Enzyme/Substrate Solution to all columns 1-6. 4. Preincubate for 30 min. at RT (shaker). 5. Add 5 n1 of ATP Solution to all wells to start reactions. 6. Shake the assay plate on a plate shaker for 30 seconds. 7. Incubate the assay plate for one hour at room temperature (20-25° C.). Stop Step and Fluorescence Detection: 1. Add 10 n1 of Antibody/EDTA Solution to each well in columns 1-9. 2. Shake the assay plate on a plate shaker for 30 seconds. 3. Incubate the assay plate for one hour at room temperature (20-25° C.). 4. Measure the GFP (FRET) and terbium (reference) emission signals on a fluorescence plate reader (e.g. Perkin Elmer Envision). Data Analysis: 1. Calculate the emission ratio for each sample by dividing the GFP (FRET) signal by the terbium (reference) signal. 2. Plot the concentration of each compound versus the emission ratio. Determine the concentration of compound required to reach 50% of the maximum signal (IC50). Determination of IC50 values can be obtained by curve fitting (sigmoidal dose response, variable slope) using Prism software from GraphPad). Inhibition of Proliferation: CyQuant PC-3 Description:
The CyQuant NF assay is based on measurement of cellular DNA content via fluorescent dye binding. Because cellular DNA content is highly regulated, it is closely proportional to cell number. […]

pEC50, pIC50: −log10 of the molar value.

T1 sequence (P42345 1360-2549 limits assumed): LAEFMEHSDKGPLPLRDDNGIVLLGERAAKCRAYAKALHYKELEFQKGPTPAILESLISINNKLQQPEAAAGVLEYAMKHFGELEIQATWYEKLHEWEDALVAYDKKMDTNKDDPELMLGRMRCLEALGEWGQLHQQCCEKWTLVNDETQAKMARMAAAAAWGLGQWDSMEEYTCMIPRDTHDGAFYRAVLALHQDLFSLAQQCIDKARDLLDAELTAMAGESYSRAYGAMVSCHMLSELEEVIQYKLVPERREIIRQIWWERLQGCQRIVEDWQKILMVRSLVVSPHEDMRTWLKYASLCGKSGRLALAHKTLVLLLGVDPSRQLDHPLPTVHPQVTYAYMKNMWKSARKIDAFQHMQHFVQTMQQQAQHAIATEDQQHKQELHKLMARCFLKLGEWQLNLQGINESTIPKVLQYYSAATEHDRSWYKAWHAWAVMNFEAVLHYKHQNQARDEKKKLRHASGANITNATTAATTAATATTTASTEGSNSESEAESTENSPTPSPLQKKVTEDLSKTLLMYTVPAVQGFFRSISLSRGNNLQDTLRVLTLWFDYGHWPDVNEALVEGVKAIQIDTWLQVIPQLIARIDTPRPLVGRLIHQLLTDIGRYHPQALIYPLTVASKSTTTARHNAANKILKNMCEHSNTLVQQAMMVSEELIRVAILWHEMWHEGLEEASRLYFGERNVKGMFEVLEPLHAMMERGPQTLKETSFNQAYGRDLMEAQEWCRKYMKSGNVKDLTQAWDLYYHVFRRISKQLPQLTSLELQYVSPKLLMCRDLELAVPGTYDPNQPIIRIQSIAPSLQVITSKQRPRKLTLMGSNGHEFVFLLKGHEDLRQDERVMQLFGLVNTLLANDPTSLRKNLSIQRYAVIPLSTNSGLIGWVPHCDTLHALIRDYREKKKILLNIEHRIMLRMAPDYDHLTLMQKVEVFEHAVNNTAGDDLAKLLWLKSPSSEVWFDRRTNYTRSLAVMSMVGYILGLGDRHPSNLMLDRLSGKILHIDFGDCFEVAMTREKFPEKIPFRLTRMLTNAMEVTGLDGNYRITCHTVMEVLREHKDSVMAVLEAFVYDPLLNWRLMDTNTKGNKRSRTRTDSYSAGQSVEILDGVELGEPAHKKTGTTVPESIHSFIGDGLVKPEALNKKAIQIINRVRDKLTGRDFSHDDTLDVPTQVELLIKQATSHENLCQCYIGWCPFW

As usually defined, the pIC50 is the negative decadic logarithm of the IC50, by convention in mol/L. By pEC50 is commonly meant −log10 of the EC50, conventionally taken in molar units. On FRAP1 (mTOR) kinase, `CNc1ccc(-c2nn(C(C)C)c3c2CCCc2nc(NC(C)=O)sc2-3)cn1` [Example B-05, N-[1-Isopropyl-3-(6-methylamino-pyridin-3-yl)-1,4,5,6-tetrahydro-9-thia-1,2,7-triaza-cyclopenta[e]azulen-8-yl]-acetamide] showed a pIC50 of 7.62. The pEC50 in the assay with PC-3 cells is 7.02.

`CNc1ccc(-c2nn(-c3ccccc3C)c3c2CCCc2nc(NC(C)=O)sc2-3)cn1` [Example B-06, N-[3-(6-Methylamino-pyridin-3-yl)-1-o-tolyl-1,4,5,6-tetrahydro-9-thia-1,2,7-triaza-cyclopenta[e]azulen-8-yl]-acetamide] gave a pIC50 against FRAP1 (mTOR) kinase of 7.44. For the same compound, in the assay with PC-3 cells, the pEC50 is 7.18.

At FRAP1 (mTOR) kinase, `CCNc1ccc(-c2nn(-c3ccccc3C)c3c2CCCc2nc(NC(C)=O)sc2-3)cn1` [Example B-07, N-[3-(6-Ethylamino-pyridin-3-yl)-1-o-tolyl-1,4,5,6-tetrahydro-9-thia-1,2,7-triaza-cyclopenta[e]azulen-8-yl]-acetamide] gave a pIC50 of 7.26. In the assay on PC-3 cells, the negative-log EC50 (pEC50) is 6.89.

The compound `CC(=O)Nc1nc2c(s1)-c1c(c(-c3ccc(C)nc3)nn1C(C)C)CCC2` [Example B-09, N-[1-Isopropyl-3-(6-methyl-pyridin-3-yl)-1,4,5,6-tetrahydro-9-thia-1,2,7-triaza-cyclopent[e]azulen-8-yl]acetamide] showed a pIC50 against FRAP1 (mTOR) kinase of 6.58. Besides, the pEC50 in the assay on PC-3 cells was 6.48.

For the compound `CC(=O)Nc1nc2c(s1)-c1c(c(-c3ccc(C)nc3)nn1-c1ccccc1C)CCC2` [Example B-11, N-[3-(6-Methyl-pyridin-3-yl)-1-o-tolyl-1,4,5,6-tetrahydro-9-thia-1,2,7-triaza-cyclopent[e]azulen-8-yl]-acetamide], the pIC50 at FRAP1 (mTOR) kinase was 6.09. In addition, the pEC50 in the assay on PC-3 cells is 6.32.

For `CC(=O)Nc1nc2c(s1)-c1c(c(-c3ccc(C)nc3)nn1C1CCN(C3CC3)CC1)CCC2` [Example B-12, N-[1-(1-Cyclopropyl-piperidin-4-yl)-3-(6-methyl-pyridin-3-yl)-1,4,5,6-tetrahydro-9-thia-1,2,7-triaza-cyclopent[e]azulen-8-yl]acetamide], on FRAP1 (mTOR) kinase, the pIC50 was 7.51. For the same compound, the pEC50 with PC-3 cells was 6.90.

`CC(=O)Nc1nc2c(s1)-c1c(c(-c3ccc(C)nc3)nn1-c1ccccc1F)CCC2` [Example B-17, N-[1-(2-Fluoro-phenyl)-3-(6-methyl-pyridin-3-yl)-1,4,5,6-tetrahydro-9-thia-1,2,7-triaza-cyclopenta[e]azulen-8-yl]-acetamide] showed a negative logarithm of the IC50 (pIC50) against FRAP1 (mTOR) kinase of 7.28. In addition, in the assay on PC-3 cells, the pEC50 is 6.94.

`C=CCn1nc(-c2ccc(C)nc2)c2c1-c1sc(NC(C)=O)nc1CCC2` [Example B-25] showed a pIC50 on FRAP1 (mTOR) kinase of 6.05. The pEC50 with PC-3 cells is 6.36.

Take `CNc1ccc(-c2nn(C(C)C)c3c2CCCc2nc(NC(=O)N(C)C)sc2-3)cn1` [Example B-27]: on FRAP1 (mTOR) kinase, the pIC50 is 6.30. In addition, the pEC50 in the assay on PC-3 cells was 6.48.

As to `CNc1ccc(-c2nn(-c3ccccc3Cl)c3c2CCCc2nc(NC(C)=O)sc2-3)cn1` [Example B-28, N-[1-(2-Chloro-phenyl)-3-(6-methylamino-pyridin-3-yl)-1,4,5,6-tetrahydro-9-thia-1,2,7-triaza-cyclopenta[e]azulen-8-yl]-acetamide], the pIC50 against FRAP1 (mTOR) kinase is 7.30. For the same compound, in the assay on PC-3 cells, the pEC50 is 7.15.

Turning to `CC(C)n1nc(-c2ccc(N)nc2)c2c1-c1sc(NC(=O)N(C)C)nc1CCC2` [Example B-29], on FRAP1 (mTOR) kinase, the negative logarithm of the IC50 (pIC50) is 6.70. The pEC50 with PC-3 cells was 6.56.

On to `CCCn1nc(-c2ccc(N)nc2)c2c1-c1sc(NC(=O)N(C)C)nc1CCC2` [Example B-33], for which, at FRAP1 (mTOR) kinase, the negative-log IC50 (pIC50) is 6.94. Besides, the pEC50 in the assay on PC-3 cells was 6.51.

On to `CCn1nc(-c2ccc(N)nc2)c2c1-c1sc(NC(=O)N(C)C)nc1CCC2` [Example B-35], for which the pIC50 at FRAP1 (mTOR) kinase is 6.66. Also, the pEC50 in the assay with PC-3 cells was 6.39.

With `CNc1ccc(-c2nn(-c3ccccc3F)c3c2CCCc2nc(NC(=O)N(C)C)sc2-3)cn1` [Example B-43], the negative-log IC50 (pIC50) against FRAP1 (mTOR) kinase was 6.85. For the same compound, in the assay on PC-3 cells, the pEC50 was 6.72.
